Measurements reported in patent US20160159774A1 (Celgene Avilomics Research, Inc., priority 2014, published 2016).

Experiments:
activated BTK enzyme = target: T1, activated BTK enzyme (Homo sapiens, UniProt Q06187); assay: Omnia assay for potency assessment against BTK; assay type: biochemical; details: BTK inhibition assay; [BTK]=5 nM, [ATP]=40 μM, [Y5-Sox]=10 μM
T1 construct: purchased Life Technologies PV3363
Description: Omnia Assay Protocol for Potency Assessment Against BTK
The protocol below describes an assay to measure potency of compounds against the activated BTK enzyme. The mechanics of the assay platform are best described by the vendor (Life Technologies, Carlsbad, Calif.) on their website at the following URLs: www.lifetechnologies.com/us/en/home/life-science/drug-discovery/target-and-lead-identification-and-validation/kinasebiology/kinase-activity-assays/omnia-kinase-assays/omnia-kinase-principle.html and tools.lifetechnologies.com/content/sfs/manuals/omnia_kinase_assay_man.pdf
Briefly, 10× stocks of BTK (PV3363) from Life Technologies, 1.13×ATP (AS00lA) and Sox conjugated peptide substrates, Y5-Sox, (KZN305l) were prepared in 1× kinase reaction buffer consisting of 20 mM Tris, pH 7.5, 5 mM MgCl2, 1 mM EGTA, 5 mM (3-glycerophosphate, 5% glycerol (10× stock, KB002A) and 0.2 mM DTT (DS00lA). 5 μL of each enzyme were pre-incubated in a Corning (#3574) 384-well, white, non-binding surface microtiter plate (Corning, N.Y.) for 30 min. at room temperature with a 0.5 μL volume of 50% DMSO or serially diluted compounds prepared in 50% DMSO. Kinase reactions were started with the addition of […] of the ATP/Tyr-Sox peptide substrate Y5 mix and monitored every 71 seconds for 60 minutes at λex360/λem485 in a Synergy4 plate reader from BioTek (Winooski, Vt.). At the conclusion of each assay, progress curves from each well were examined for linear reaction kinetics and fit statistics (R2, 95% confidence interval, absolute sum of squares). Initial velocity (0 minutes to ˜30 minutes) from each reaction was determined from the slope of a plot of relative fluorescence units vs time (minutes) and then plotted against inhibitor concentration to estimate IC50 from log [Inhibitor] vs Response, Variable Slope model in GraphPad Prism from GraphPad Software (San Diego, Calif.).
Reagent conditions for the assay are:
[BTK]=5 nM, [ATP]=40 μM, [Y5-Sox]=10 μM (ATP KMapp˜36 μM).
The compound numbers correspond to the compound numbers in the examples.

[1] = target: T2, BTK in Ramos human Burkitt lymphoma cells (Homo sapiens, UniProt Q06187); assay: BTK Ramos cellular assay (BTK occupancy); assay type: cell-based; details: concentration producing 50% occupancy of BTK, 1 hour incubation with compound
T2 construct: Compounds of this invention were assayed in Ramos human Burkitt lymphoma cells; endogenous in cells; host or cells: Ramos human Burkitt lymphoma cells
Procedure: BTK activity in Ramos cells, in the presence of a compound of the invention, can be measured by 3 different methods: 1) inhibition of autophosphorylation of BTK; 2) inhibition of phosphorylation of the immediate BTK surrogate PLCγ2; and 3) BTK occupancy. […] In this instance, BTK occupancy was chosen and is described below.
Compounds of this invention were assayed in Ramos human Burkitt lymphoma cells. Ramos cells were grown in suspension in T175 flasks, spun down, resuspended to a concentration of 2×10^6 cells per mL in serum-free media and incubated for 1 hour. Compound was added to Ramos cells to a final concentration of 500, 166.7, 55.6, 18.5, 6.2, 2.1, and 0.7 nM. Ramos cells were incubated with compound for 1 hour, washed with PBS and lysed in 1004 of BioRad lysis Buffer. Cell lysates were incubated with a biotinylated covalent probe (compound 1-215 disclosed in U.S. published application number 2010/0029610, incorporated by reference in its entirety) at a final concentration of 1 μM in a PBS, 0.05% Tween-20, 1% BSA solution for 1 h at room temperature. Standards and samples were transferred to a streptavidin-coated 96-well ELISA plate and mixed while shaking for 1 h at room temperature. The α-Btk antibody (BD 611116, 1:1000 dilution in PBS+0.05% Tween-20+0.5% BSA) was then added and incubated for 1 h at room temperature. After wash, goat α-mouse-HRP (1:5000 dilution in PBS+0.05% Tween-20+0.5% BSA) was added and incubated for 1 h at room temperature. The ELISA was developed with addition of tetramethyl benzidine (TMB) followed by Stop Solution and read at OD 450 nm. The standard curve (11.7-3000 pg/μL) was generated with human full-length recombinant Btk protein and plotted using a 4 parameter curve fit in Gen5 software. Uninhibited Btk detected from samples was normalized to μg total protein as determined by BCA protein analysis (Pierce Cat. 23225).
The results of this assay show the concentration of compound producing 50% occupancy of BTK. This level of occupancy empirically translates to a level of 50% inhibition of BTK activity (both as measured by autophosphorylation and by phosphorylation of PLCγ2). […] The compound numbers correspond to the compound numbers in the examples.

T2 sequence (Q06187 whole entry): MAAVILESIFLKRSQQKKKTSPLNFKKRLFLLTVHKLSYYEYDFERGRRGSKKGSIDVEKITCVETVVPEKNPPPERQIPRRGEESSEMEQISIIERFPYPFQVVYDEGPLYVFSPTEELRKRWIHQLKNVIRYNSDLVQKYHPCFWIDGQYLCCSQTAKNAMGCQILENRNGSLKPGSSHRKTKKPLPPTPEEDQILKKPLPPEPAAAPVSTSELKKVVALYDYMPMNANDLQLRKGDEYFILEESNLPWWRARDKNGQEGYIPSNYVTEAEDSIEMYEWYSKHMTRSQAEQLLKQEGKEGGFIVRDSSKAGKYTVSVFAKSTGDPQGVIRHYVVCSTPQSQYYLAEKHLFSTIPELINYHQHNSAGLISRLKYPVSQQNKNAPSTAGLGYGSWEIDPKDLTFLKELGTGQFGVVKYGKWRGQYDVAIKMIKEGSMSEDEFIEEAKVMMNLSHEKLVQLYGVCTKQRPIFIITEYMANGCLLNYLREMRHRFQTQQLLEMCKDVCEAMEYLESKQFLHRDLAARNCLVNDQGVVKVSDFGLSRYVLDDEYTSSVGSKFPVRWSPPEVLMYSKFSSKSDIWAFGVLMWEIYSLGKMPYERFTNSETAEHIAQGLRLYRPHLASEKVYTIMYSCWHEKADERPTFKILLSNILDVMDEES
T1 sequence (Q06187 whole entry): as above

IC50 (activated BTK enzyme) | EC50 [1] | Compound
< 10 nM | 10 to 100 nM | C=CC(=O)N1CCC[C@@H](Nc2nc(Nc3ccc4c(c3)CNC4)ncc2F)C1 [Compound I-1, (R)-1-(3-((5-fluoro-2-(isoindolin-5-ylamino)pyrimidin-4-yl)amino)piperidin-1-yl)prop-2-en-1-one]
< 10 nM | < 10 nM | C=CC(=O)N1CCC[C@@H](Nc2nc(Nc3ccc4c(c3)CN(C)C4)ncc2F)C1 [Compound I-2, (R)-1-(3-((5-Fluoro-2-((2-methylisoindolin-5-yl)amino)pyrimidin-4-yl)amino)piperidin-1-yl)prop-2-en-1-one]
< 10 nM | 101 to 1000 nM | C=CC(=O)N1CCC[C@@H](Nc2nc(Nc3ccc4c(c3)CN(C(C)=O)C4)ncc2F)C1 [Compound I-3, (R)-1-(3-((2-((2-Acetylisoindolin-5-yl)amino)-5-fluoropyrimidin-4-yl)amino)-piperidin-1-yl)prop-2-en-1-one]
< 10 nM | 10 to 100 nM | C=CC(=O)N1CCC[C@@H](Nc2nc(Nc3ccc4c(c3)CN(CCOC)C4)ncc2F)C1 [Compound I-4, (R)-1-(3-((5-Fluoro-2-((2-(2-methoxyethyl)isoindolin-5-yl)amino)pyrimidin-4-yl)amino)piperidin-1-yl)prop-2-en-1-one]
< 10 nM | 101 to 1000 nM | C=CC(=O)N1CCC[C@@H](Nc2nc(Nc3ccc4c(c3)CN(C3CCNCC3)C4)ncc2F)C1 [Compound I-5, (R)-1-(3-((5-fluoro-2-((2-(piperidin-4-yl)isoindolin-5-yl)amino)pyrimidin-4-yl)amino)piperidin-1-yl)prop-2-en-1-one]
< 10 nM | 101 to 1000 nM | C=CC(=O)N1CCC[C@@H](Nc2nc(Nc3ccc4c(c3)CN(CC3CCNCC3)C4)ncc2F)C1 [Compound I-6, (R)-1-(3-((5-Fluoro-2-((2-(piperidin-4-ylmethyl)isoindolin-5-yl)amino)pyrimidin-4-yl)amino)piperidin-1-yl)prop-2-en-1-one]
< 10 nM | 10 to 100 nM | C=CC(=O)N1CCC[C@@H](Nc2nc(Nc3ccc4c(c3)CN(C3CCN(C)CC3)C4)ncc2F)C1 [Compound I-7, (R)-1-(3-((5-Fluoro-2-((2-(1-methylpiperidin-4-yl)isoindolin-5-yl)amino)-pyrimidin-4-yl)amino)piperidin-1-yl)prop-2-en-1-one]
< 10 nM | < 10 nM | C=CC(=O)N1CCC[C@@H](Nc2nc(Nc3ccc4c(c3)CN(CC3CCN(C)CC3)C4)ncc2F)C1 [Compound I-8]
< 10 nM | 10 to 100 nM | C=CC(=O)N1CCC[C@@H](Nc2nc(Nc3ccc4c(c3)CN(C3CCN(C(C)=O)CC3)C4)ncc2F)C1 [Compound I-9, (R)-1-(3-(2-(2-(1-Acetylpiperidin-4-yl)isoindolin-5-ylamino)-5-fluoropyrimidin-4-ylamino)piperidin-1-yl)prop-2-en-1-one]
< 10 nM | 10 to 100 nM | C=CC(=O)N1CCC[C@@H](Nc2nc(Nc3ccc4c(c3)CN(CC3CCN(C(C)=O)CC3)C4)ncc2F)C1 [Compound I-10]
< 10 nM | < 10 nM | C=CC(=O)N1CCC[C@@H](Nc2nc(Nc3ccc4c(c3)CN(CC3CCOCC3)C4)ncc2F)C1 [Compound I-11, (R)-1-(3-(5-Fluoro-2-(2-((tetrahydro-2H-pyran-4-yl)methyl)isoindolin-5-ylamino)pyrimidin-4-ylamino)piperidin-1-yl)prop-2-en-1-one]
< 10 nM | 10 to 100 nM | C=CC(=O)N1CCC[C@@H](Nc2nc(Nc3ccc4c(c3)CN(C3CCOCC3)C4)ncc2F)C1 [Compound I-12, (R)-1-(3-((5-Fluoro-2-((2-(tetrahydro-2H-pyran-4-yl)isoindolin-5-yl)amino)-pyrimidin-4-yl)amino)piperidin-1-yl)prop-2-en-1-one]
< 10 nM | 10 to 100 nM | C=CC(=O)N1CCC[C@@H](Nc2nc(Nc3ccc4c(c3)CN(C3COC3)C4)ncc2F)C1 [Compound I-13, (R)-1-(3-((5-Fluoro-2-((2-(oxetan-3-yl)isoindolin-5-yl)amino)pyrimidin-4-yl)amino)piperidin-1-yl)prop-2-en-1-one]
< 10 nM | 10 to 100 nM | C=CC(=O)N1CCC[C@@H](Nc2nc(Nc3ccc4c(c3)CN(CC(C)(C)C)C4)ncc2F)C1 [Compound I-14, (R)-1-(3-((5-Fluoro-2-((2-neopentylisoindolin-5-yl)amino)pyrimidin-4-yl)amino)piperidin-1-yl)prop-2-en-1-one]
< 10 nM | 10 to 100 nM | C=CC(=O)N1CCC[C@@H](Nc2nc(Nc3ccc4c(c3)CN(CC3COC3)C4)ncc2F)C1 [Compound I-15, (R)-1-(3-((5-Fluoro-2-((2-(oxetan-3-ylmethyl)isoindolin-5-yl)amino)pyrimidin-4-yl)amino)piperidin-1-yl)prop-2-en-1-one]
< 10 nM | < 10 nM | C=CC(=O)N1CCC[C@@H](Nc2nc(Nc3ccc4c(c3)CN(CC(N)=O)C4)ncc2F)C1 [Compound I-16]
< 10 nM | < 10 nM | C=CC(=O)N1CCC[C@@H](Nc2nc(Nc3ccc4c(c3)CN(C(C)C)C4)ncc2F)C1 [Compound I-17, (R)-1-(3-((5-Fluoro-2-((2-isopropylisoindolin-5-yl)amino)pyrimidin-4-yl)amino)piperidin-1-yl)prop-2-en-1-one]
< 10 nM | < 10 nM | C=CC(=O)N1CCC[C@@H](Nc2nc(Nc3ccc4c(c3)CN(C3CCC3)C4)ncc2F)C1 [Compound I-18, (R)-1-(3-((2-((2-Cyclobutylisoindolin-5-yl)amino)-5-fluoropyrimidin-4-yl)amino)piperidin-1-yl)prop-2-en-1-one]
< 10 nM | < 10 nM | C=CC(=O)N1CCC[C@@H](Nc2nc(Nc3ccc4c(c3)CN(CC3CC3)C4)ncc2F)C1 [Compound I-19, (R)-1-(3-((2-((2-(cyclopropylmethyl)isoindolin-5-yl)amino)-5-fluoropyrimidin-4-yl)amino)piperidin-1-yl)prop-2-en-1-one]
< 10 nM | < 10 nM | [2H]C([2H])([2H])N1Cc2ccc(Nc3ncc(F)c(N[C@@H]4CCCN(C(=O)C=C)C4)n3)cc2C1 [Compound I-20, (R)-1-(3-((5-Fluoro-2-((2-deuteromethylisoindolin-5-yl)amino)pyrimidin-4-yl)amino)piperidin-1-yl)prop-2-en-1-one]
< 10 nM | 10 to 100 nM | C=CC(=O)N1CCC[C@@H](Nc2nc(Nc3ccc4c(c3)CN(C3CC3)C4)ncc2F)C1 [Compound I-21, (R)-1-(3-((2-((2-cyclopropylisoindolin-5-yl)amino)-5-fluoropyrimidin-4-yl)amino)piperidin-1-yl)prop-2-en-1-one]
101 to 1000 nM |  | C=CC(=O)N1CC2CC(Nc3nc(Nc4ccc5c(c4)CN(C)C5)ncc3F)C1C2 (stereo not shown) [Compound I-66, 1-(6-((5-fluoro-2-((2-methylisoindolin-5-yl)amino)pyrimidin-4-yl)amino)-2-azabicyclo[2.2.1]heptan-2-yl)prop-2-en-1-one]
